{
  "source": "ChEMBL document CHEMBL1137386",
  "about": "“Pyrrolidine carboxamides as a novel class of inhibitors of enoyl acyl carrier protein reductase from Mycobacterium tuberculosis” (J Med Chem, 2006)",
  "key": {"[1]": {"tested_on": "Mycobacterium tuberculosis", "assay": "Antibacterial activity against Mycobacterium tuberculosis H37Rv by alamar blue assay", "assay_type": "functional"}, "[2]": {"target": "T1, Enoyl-[acyl-carrier-protein] reductase [NADH] (Mycobacterium tuberculosis, UniProt P9WGR1)", "T1 sequence (P9WGR1 whole entry)": "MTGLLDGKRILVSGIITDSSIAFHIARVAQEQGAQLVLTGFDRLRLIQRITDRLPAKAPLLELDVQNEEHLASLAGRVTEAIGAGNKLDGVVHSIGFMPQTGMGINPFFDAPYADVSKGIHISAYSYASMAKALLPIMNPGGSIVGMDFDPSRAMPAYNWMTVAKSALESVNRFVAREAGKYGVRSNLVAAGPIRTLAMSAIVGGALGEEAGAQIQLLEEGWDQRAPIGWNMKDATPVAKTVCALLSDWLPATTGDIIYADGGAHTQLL", "description": "(§1) Inhibition of Mycobacterium tuberculosis InhA"}, "[3]": {"target": "T2, Enoyl-[acyl-carrier-protein] reductase [NADH] (Mycobacterium tuberculosis) (UniProt P9WGR1)", "T2 sequence (whole entry)": "T1 sequence (P9WGR1 whole entry)", "conditions": "20 uM"}, "[4]": {"target": "T2, Enoyl-[acyl-carrier-protein] reductase [NADH] (Mycobacterium tuberculosis)", "description": "as §1"}, "[5]": {"target": "T2, Enoyl-[acyl-carrier-protein] reductase [NADH] (Mycobacterium tuberculosis)", "conditions": "2.4 uM", "description": "Inhibition of Mycobacterium tuberculosis InhA at 2.4 uM"}},
  "note": "Activity calls are given as the source filed them. The rule behind the calls is not given here.",
  "data": [
    {"smiles": "O=C(Nc1cc(Br)cc(C(F)(F)F)c1)C1CC(=O)N(C2CCCCC2)C1", "note": "(configuration not stated)", "values": [
      {"measurement": "MIC", "setting": "[1]", "result": 62.5, "unit": "µM"},
      {"measurement": "IC50", "setting": "[2]", "result": 850, "unit": "nM"}
    ]},
    {"smiles": "O=C(Nc1cccc(Cc2ccccc2)c1)C1CC(=O)N(C2CCCCC2)C1", "note": "(configuration not stated)", "values": [
      {"measurement": "IC50", "setting": "[2]", "result": 410, "unit": "nM"}
    ]},
    {"smiles": "O=C(Nc1cc(Cl)cc(Cl)c1)C1CC(=O)N(C2CCCCC2)C1", "note": "(stereo in doubt; d11a)", "values": [
      {"measurement": "IC50", "setting": "[2]", "result": 8160, "unit": "nM"}
    ]},
    {"smiles": "N#Cc1c(NC(=O)C2CC(=O)N(C3CCCCC3)C2)sc2c1CCCC2", "note": "(configuration not stated)", "values": [
      {"measurement": "Activity", "setting": "[3]", "result": "inactive"}
    ]},
    {"smiles": "CS(=O)(=O)Nc1cccc(NC(=O)C2CC(=O)N(C3CCCCC3)C2)c1", "note": "(configuration not stated)", "values": [
      {"measurement": "Activity", "setting": "[4]", "result": "inactive"}
    ]},
    {"smiles": "CN(Cc1c2ccccc2cc2ccccc12)C(=O)C1CC(=O)N(C2CCCCCCC2)C1", "note": "(configuration not stated)", "values": [
      {"measurement": "MIC", "setting": "[1]", "result": 62.5, "unit": "µM"},
      {"measurement": "IC50", "setting": "[2]", "result": 620, "unit": "nM"}
    ]},
    {"smiles": "O=C(NC1CCCC1)C1CC(=O)N(C2CCCCC2)C1", "note": "(configuration not stated)", "values": [
      {"measurement": "Activity", "setting": "[3]", "result": "inactive"}
    ]},
    {"smiles": "COc1cccc(NC(=O)C2CC(=O)N(C3CCCCC3)C2)c1", "note": "(configuration not stated)", "values": [
      {"measurement": "Activity", "setting": "[4]", "result": "inactive"}
    ]},
    {"smiles": "O=C(Nc1cccc(-c2ccccc2)c1)C1CC(=O)N(C2CCCCC2)C1", "note": "(stereo in doubt; p24b)", "values": [
      {"measurement": "IC50", "setting": "[2]", "result": 255, "unit": "nM"}
    ]},
    {"smiles": "O=C(Nc1cccc(Br)c1)C1CC(=O)N(c2ccccc2)C1", "note": "(configuration not stated)", "values": [
      {"measurement": "IC50", "setting": "[2]", "result": 13500, "unit": "nM"}
    ]},
    {"smiles": "O=C(Nc1cccc(OCc2ccccc2)c1)C1CC(=O)N(C2CCCCC2)C1", "note": "(configuration not stated)", "values": [
      {"measurement": "MIC", "setting": "[1]", "result": 125, "unit": "µM"}
    ]},
    {"smiles": "CN(Cc1c2ccccc2cc2ccccc12)C(=O)C1CC(=O)N(C2CCCCC2)C1", "note": "(configuration not stated)", "values": [
      {"measurement": "MIC", "setting": "[1]", "result": 125, "unit": "µM"},
      {"measurement": "IC50", "setting": "[2]", "result": 750, "unit": "nM"}
    ]},
    {"smiles": "COCc1nnc(NC(=O)C2CC(=O)N(C3CCCCC3)C2)s1", "note": "(configuration not stated)", "values": [
      {"measurement": "Activity", "setting": "[3]", "result": "inactive"}
    ]},
    {"smiles": "CN(Cc1c2ccccc2cc2ccccc12)C(=O)C1CC(=O)N(C2CC3CCC2C3)C1", "note": "(configuration not stated)", "values": [
      {"measurement": "MIC", "setting": "[1]", "result": 125, "unit": "µM"},
      {"measurement": "IC50", "setting": "[2]", "result": 850, "unit": "nM"}
    ]},
    {"smiles": "O=C(Nc1nnc(Cc2ccccc2)s1)C1CC(=O)N(C2CCCCC2)C1", "note": "(configuration not stated)", "values": [
      {"measurement": "Activity", "setting": "[3]", "result": "inactive"}
    ]},
    {"smiles": "O=C(C1CC(=O)N(C2CCCCC2)C1)N1CCOCC1", "note": "(configuration not stated)", "values": [
      {"measurement": "Activity", "setting": "[3]", "result": "inactive"}
    ]},
    {"smiles": "O=C(Nc1nnc(CCc2ccccc2)s1)C1CC(=O)N(C2CCCCC2)C1", "note": "(configuration not stated)", "values": [
      {"measurement": "Activity", "setting": "[3]", "result": "inactive"}
    ]},
    {"smiles": "Cc1ccc(Cl)cc1NC(=O)C1CC(=O)N(C2CCCCC2)C1", "note": "(configuration not stated)", "values": [
      {"measurement": "IC50", "setting": "[2]", "result": 970, "unit": "nM"}
    ]},
    {"smiles": "O=C(C1CC(=O)N(C2CCCCC2)C1)N1CCN(c2ccccc2)CC1", "note": "(configuration not stated)", "values": [
      {"measurement": "Activity", "setting": "[3]", "result": "inactive"}
    ]},
    {"smiles": "O=C(Nc1cccc(Br)c1)C1CC(=O)N(C2CCCCC2)C1", "note": "(configuration not stated)", "values": [
      {"measurement": "IC50", "setting": "[2]", "result": 890, "unit": "nM"}
    ]},
    {"smiles": "O=C(Nc1cc(Cl)cc(Cl)c1)C1CC(=O)N(C2CCCCC2)C1", "note": "(stereo in doubt; d11b)", "values": [
      {"measurement": "IC50", "setting": "[2]", "result": 200, "unit": "nM"}
    ]},
    {"smiles": "O=C(Nc1cc(Cl)cc(Cl)c1)C1CC(=O)N(C2CCCCC2)C1", "note": "(stereo in doubt; d11)", "values": [
      {"measurement": "IC50", "setting": "[2]", "result": 390, "unit": "nM"}
    ]},
    {"smiles": "NC(=O)c1cccc(NC(=O)C2CC(=O)N(C3CCCCC3)C2)c1", "note": "(configuration not stated)", "values": [
      {"measurement": "Activity", "setting": "[4]", "result": "inactive"}
    ]},
    {"smiles": "Cc1nnc(NC(=O)C2CC(=O)N(C3CCCCC3)C2)s1", "note": "(configuration not stated)", "values": [
      {"measurement": "Activity", "setting": "[3]", "result": "inactive"}
    ]},
    {"smiles": "O=C(Nc1cccc(-c2ccccc2)c1)C1CC(=O)N(C2CCCCC2)C1", "note": "(stereo in doubt; p24a)", "values": [
      {"measurement": "IC50", "setting": "[2]", "result": 2100, "unit": "nM"}
    ]},
    {"smiles": "CN1CCN(C(=O)C2CC(=O)N(C3CCCCC3)C2)CC1", "note": "(configuration not stated)", "values": [
      {"measurement": "Activity", "setting": "[3]", "result": "inactive"}
    ]},
    {"smiles": "CCc1nnc(NC(=O)C2CC(=O)N(C3CCCCC3)C2)s1", "note": "(configuration not stated)", "values": [
      {"measurement": "Activity", "setting": "[3]", "result": "inactive"}
    ]},
    {"smiles": "O=C(Nc1cccc(O)c1)C1CC(=O)N(C2CCCCC2)C1", "note": "(configuration not stated)", "values": [
      {"measurement": "Activity", "setting": "[4]", "result": "inactive"}
    ]},
    {"smiles": "CCC(C)NC(=O)C1CC(=O)N(C2CCCCC2)C1", "note": "(configuration not stated)", "values": [
      {"measurement": "Activity", "setting": "[3]", "result": "inactive"}
    ]},
    {"smiles": "O=C(Nc1cccc(-c2ccccc2)c1)C1CC(=O)N(C2CC3CCC2C3)C1", "note": "(configuration not stated)", "values": [
      {"measurement": "IC50", "setting": "[2]", "result": 460, "unit": "nM"}
    ]},
    {"smiles": "O=C(NC1CCCCC1)C1CC(=O)N(C2CCCCC2)C1", "note": "(configuration not stated)", "values": [
      {"measurement": "Activity", "setting": "[3]", "result": "inactive"}
    ]},
    {"smiles": "O=C(Nc1cccc(-c2ccccc2)c1)C1CC(=O)N(C2CCCCC2)C1", "note": "(stereo in doubt; p24)", "values": [
      {"measurement": "IC50", "setting": "[2]", "result": 390, "unit": "nM"}
    ]},
    {"smiles": "O=C(Nc1cc(-c2ccccc2)c(O)c(-c2ccccc2)c1)C1CC(=O)N(C2CCCCC2)C1", "note": "(stereo in doubt; p64a)", "values": [
      {"measurement": "inhibition", "setting": "[5]", "result": 72.7, "unit": "%"}
    ]},
    {"smiles": "O=C(Nc1cc(-c2ccccc2)c(O)c(-c2ccccc2)c1)C1CC(=O)N(C2CCCCCC2)C1", "note": "(configuration not stated)", "values": [
      {"measurement": "IC50", "setting": "[2]", "result": 270, "unit": "nM"}
    ]},
    {"smiles": "O=C(C1CC(=O)N(C2CCCCC2)C1)N1CCc2ccccc21", "note": "(configuration not stated)", "values": [
      {"measurement": "inhibition", "setting": "[4]; concentration not given here", "result": 65, "unit": "%"}
    ]},
    {"smiles": "CN(Cc1c2ccccc2cc2ccccc12)C(=O)C1CC(=O)N(C2CCCCCC2)C1", "note": "(configuration not stated)", "values": [
      {"measurement": "MIC", "setting": "[1]", "result": 125, "unit": "µM"},
      {"measurement": "IC50", "setting": "[2]", "result": 320, "unit": "nM"}
    ]},
    {"smiles": "CC(=O)c1cccc(NC(=O)C2CC(=O)N(C3CCCCC3)C2)c1", "note": "(configuration not stated)", "values": [
      {"measurement": "Activity", "setting": "[4]", "result": "inactive"}
    ]}
  ]
}
